Experimental data: US10174013B2, “Benzimidazole derivatives as kinase inhibitors” (SELVITA S.A., priority 2012, dated 2019)
Read-outs that look alike come from different tables or passages of the source.

Assays:
DYRK1 = DYRK1 (Homo sapiens (Human), UniProt Q13627); experiment: ADP-Glo Kinase Assay, DYRK1; format: biochemical; settings: 1 μM compound; for inhibition at 1 µM: read-out: DYRK1A % INH (1 μM)
In short: (§1)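 Buffer was MOPS 5 mM (pH 7.5) with MgCl2, EDTA and DTT; ATP set at apparent Km per kinase. Compounds were diluted in assay buffer to 1000 nM. Kinase-generated ADP was converted to luciferase signal and normalised to percent inhibition.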

CDK2/E = CDK2/E (Homo sapiens (Human), UniProt P24941); experiment: ADP-Glo Kinase Assay, CDK2/E; format: biochemical; settings: 1 μM compound; for inhibition at 1 µM: read-out: CDK2/E % INH (1 μM)
In short: as §1

Pim-2 = Pim-2 (Homo sapiens (Human), UniProt Q9P1W9); experiment: ADP-Glo Kinase Assay, Pim-2; format: biochemical; settings: 1 μM compound; for inhibition at 1 µM: read-out: Pim-2 % INH (1 μM)
Chain of Pim-2 (Q9P1W9 whole entry): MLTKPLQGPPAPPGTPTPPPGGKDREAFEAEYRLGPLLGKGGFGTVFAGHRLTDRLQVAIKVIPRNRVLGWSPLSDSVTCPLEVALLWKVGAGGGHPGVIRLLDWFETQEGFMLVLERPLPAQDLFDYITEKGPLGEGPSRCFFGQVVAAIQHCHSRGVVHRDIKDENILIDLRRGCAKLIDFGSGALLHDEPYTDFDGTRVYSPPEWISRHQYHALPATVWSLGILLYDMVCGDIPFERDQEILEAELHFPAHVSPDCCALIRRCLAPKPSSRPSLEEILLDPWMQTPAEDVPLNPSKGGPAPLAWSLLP
In short: as §1

Pim-3 = Pim-3 (Homo sapiens (Human), UniProt Q86V86); experiment: ADP-Glo Kinase Assay, Pim-3; format: biochemical; settings: 1 μM compound; for inhibition at 1 µM: read-out: Pim-3 % INH (1 μM)
In short: as §1

HEL92 cells = experiment: Growth inhibition, MTS assay, HEL92; format: cell-based, Human; settings: MTS cell viability, read-out: HEL92 ED50
Pim-1 = Pim-1 (Homo sapiens (Human), UniProt P11309); experiment: ADP-Glo Kinase Assay, Pim-1; format: biochemical; settings: 1 μM compound; for inhibition at 1 µM: read-out: Pim-1 % INH (1 μM)
Chain of Pim-1 (P11309 whole entry): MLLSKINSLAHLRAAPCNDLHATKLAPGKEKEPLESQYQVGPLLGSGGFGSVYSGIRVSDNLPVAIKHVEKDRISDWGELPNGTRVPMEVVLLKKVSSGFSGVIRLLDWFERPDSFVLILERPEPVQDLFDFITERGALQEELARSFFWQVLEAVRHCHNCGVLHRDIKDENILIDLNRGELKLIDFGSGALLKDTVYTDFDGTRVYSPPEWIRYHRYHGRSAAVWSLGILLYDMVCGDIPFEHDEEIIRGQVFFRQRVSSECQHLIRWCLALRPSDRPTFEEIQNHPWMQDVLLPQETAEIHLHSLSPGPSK
In short: as §1

SW-480 cells = experiment: Growth inhibition, MTS assay, SW-480; format: cell-based, Human; settings: 72 hours, MTS cell viability, read-out: SW-480 ED50
MV4-11 cells = experiment: Growth inhibition, MTS assay, MV4-11; format: cell-based, Human; settings: MTS cell viability, read-out: MV4-11 ED50
HepG2 cells = experiment: Growth inhibition, MTS assay, HepG2; format: cell-based, Human; settings: MTS cell viability, read-out: HepG2 ED50
hERG potassium channel = hERG potassium channel (Homo sapiens (Human), UniProt Q12809); experiment: hERG automated patch clamp assay (QPatch HT)
Chain of hERG potassium channel (Q12809 whole entry): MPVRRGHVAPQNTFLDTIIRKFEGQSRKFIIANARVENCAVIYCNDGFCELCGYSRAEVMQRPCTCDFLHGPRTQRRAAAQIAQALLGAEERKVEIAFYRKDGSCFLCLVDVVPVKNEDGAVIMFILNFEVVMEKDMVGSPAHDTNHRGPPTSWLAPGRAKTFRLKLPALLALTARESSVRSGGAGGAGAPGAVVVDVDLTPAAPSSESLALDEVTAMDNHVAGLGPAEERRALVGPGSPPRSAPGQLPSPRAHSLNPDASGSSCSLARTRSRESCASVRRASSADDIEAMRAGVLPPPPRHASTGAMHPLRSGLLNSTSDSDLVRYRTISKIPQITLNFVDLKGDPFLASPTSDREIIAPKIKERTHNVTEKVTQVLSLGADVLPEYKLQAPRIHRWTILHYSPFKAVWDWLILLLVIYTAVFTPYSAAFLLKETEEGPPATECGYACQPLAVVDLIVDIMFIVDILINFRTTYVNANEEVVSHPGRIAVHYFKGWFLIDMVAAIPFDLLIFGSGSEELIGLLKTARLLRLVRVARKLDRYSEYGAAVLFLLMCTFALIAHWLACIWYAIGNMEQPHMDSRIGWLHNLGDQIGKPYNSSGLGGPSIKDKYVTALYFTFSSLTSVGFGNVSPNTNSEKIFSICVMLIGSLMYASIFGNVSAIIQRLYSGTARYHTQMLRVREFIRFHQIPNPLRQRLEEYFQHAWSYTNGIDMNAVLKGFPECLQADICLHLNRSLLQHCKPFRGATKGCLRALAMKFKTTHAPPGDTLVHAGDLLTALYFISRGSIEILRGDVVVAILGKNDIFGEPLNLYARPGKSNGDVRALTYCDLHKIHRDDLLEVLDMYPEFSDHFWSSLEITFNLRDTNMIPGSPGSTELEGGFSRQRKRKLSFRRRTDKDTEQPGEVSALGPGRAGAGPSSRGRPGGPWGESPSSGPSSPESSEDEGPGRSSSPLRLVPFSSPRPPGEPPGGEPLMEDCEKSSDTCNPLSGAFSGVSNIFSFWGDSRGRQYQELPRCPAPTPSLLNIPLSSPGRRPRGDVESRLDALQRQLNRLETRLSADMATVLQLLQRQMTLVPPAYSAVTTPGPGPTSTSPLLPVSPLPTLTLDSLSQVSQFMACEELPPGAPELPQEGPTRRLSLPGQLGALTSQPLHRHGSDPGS
In short: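 Automated whole-cell patch clamp of hERG current in mammalian cells at room temperature. Compounds applied at 0.1, 1, 3, 10 and 30 μM, 3 min per concentration, n≥2 cells each.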

CYP3A4 = CYP3A4 (Homo sapiens (Human), UniProt P08684); experiment: Cytochrome P450 inhibition, fluorescence, CYP3A4; format: in vitro ADME; settings: recombinant CYP3A4, fluorescence detection; read-out: CYP inhibition (CYP 3A4 screening, IC50 class)
Chain of CYP3A4 (P08684 whole entry, canonical isoform): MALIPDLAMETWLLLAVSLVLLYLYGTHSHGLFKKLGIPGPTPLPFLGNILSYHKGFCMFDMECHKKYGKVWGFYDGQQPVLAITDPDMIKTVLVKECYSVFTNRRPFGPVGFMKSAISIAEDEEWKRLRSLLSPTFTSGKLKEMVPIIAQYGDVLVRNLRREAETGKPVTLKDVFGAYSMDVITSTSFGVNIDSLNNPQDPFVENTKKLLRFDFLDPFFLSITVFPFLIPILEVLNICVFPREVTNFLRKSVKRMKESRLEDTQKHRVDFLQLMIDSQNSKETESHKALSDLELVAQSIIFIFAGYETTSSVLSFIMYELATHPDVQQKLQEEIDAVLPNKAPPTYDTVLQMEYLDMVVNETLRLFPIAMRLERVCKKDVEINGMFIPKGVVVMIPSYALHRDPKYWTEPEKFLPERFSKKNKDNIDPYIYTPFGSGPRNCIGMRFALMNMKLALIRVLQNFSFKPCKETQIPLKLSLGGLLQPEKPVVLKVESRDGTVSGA
Experimental: The assays for cytochrome P450 inhibition facilitate the identification of drug candidates with lower potential for drug-drug interactions (weak enzymes inhibitors). In vitro experiments were conducted to determine whether a drug inhibits a specific CYP enzyme. The experiments comprised the incubation of the drug with probe substrates for the CYP enzymes, wherein the following recombinant cytochrome P450 isoforms were employed: CYP1A2, CYP2C8, CYP2C9, CYP2C19, CYP2D6 and CYP3A4, together with various probe substrates enabling fluorescence detection. The protocol uses a single substrate concentration near the apparent Km and multiple compound concentrations.
The assay was performed in 96-well microtiter plates. The row designations were A through H and the column designations were 1 through 12. […] Each compound (see Table 6 for tested compounds) was added to the wells in column 1 and serially diluted to the wells in column 8. Wells 9 and 10 were control wells which contained no test compound (therefore no inhibition-full signal is detected.) The wells in columns 11 and 12 were blanks, where STOP solution was added prior to the addition of the enzyme/substrate mix to the NADPH regenerating system (the only signal present in these wells is background noise.) The assay was conducted in a final volume of 0.2 ml per well.
The stock solutions of the tested compounds were prepared in DMSO at 10 mM concentration. […] After mixing the compounds with solution containing NADPH-cofactors, the mixed plate was preincubated in a 37° C. incubator for at least 10 minutes; next, the fluorescence of compounds using recommended excitation/emission filters was measured in order to eliminate false results originating from autofluorescence of the compounds. In the following step, the enzyme/substrate mix was added to columns 1 through 10 and the plates were incubated at 37° C. for specific times depending on the CYP tested (incubation times ranged from 30 to 45 minutes). After adding STOP SOLUTION to all wells and respective enzyme/substrate mix to the wells in columns 11 and 12, the plate was scanned with a fluorescent plate scanner. The excitation/emission filters used for the specific assays are described in the GenTest Screening Kit instruction manual.

FLT3wt = FLT3wt (Homo sapiens (Human), UniProt P36888); experiment: ADP-Glo Kinase Assay, Flt3 wt; format: biochemical; settings: 1 μM compound; for inhibition at 1 µM: read-out: Flt3wt % INH (1 μM)
Chain of FLT3wt (P36888 27-993): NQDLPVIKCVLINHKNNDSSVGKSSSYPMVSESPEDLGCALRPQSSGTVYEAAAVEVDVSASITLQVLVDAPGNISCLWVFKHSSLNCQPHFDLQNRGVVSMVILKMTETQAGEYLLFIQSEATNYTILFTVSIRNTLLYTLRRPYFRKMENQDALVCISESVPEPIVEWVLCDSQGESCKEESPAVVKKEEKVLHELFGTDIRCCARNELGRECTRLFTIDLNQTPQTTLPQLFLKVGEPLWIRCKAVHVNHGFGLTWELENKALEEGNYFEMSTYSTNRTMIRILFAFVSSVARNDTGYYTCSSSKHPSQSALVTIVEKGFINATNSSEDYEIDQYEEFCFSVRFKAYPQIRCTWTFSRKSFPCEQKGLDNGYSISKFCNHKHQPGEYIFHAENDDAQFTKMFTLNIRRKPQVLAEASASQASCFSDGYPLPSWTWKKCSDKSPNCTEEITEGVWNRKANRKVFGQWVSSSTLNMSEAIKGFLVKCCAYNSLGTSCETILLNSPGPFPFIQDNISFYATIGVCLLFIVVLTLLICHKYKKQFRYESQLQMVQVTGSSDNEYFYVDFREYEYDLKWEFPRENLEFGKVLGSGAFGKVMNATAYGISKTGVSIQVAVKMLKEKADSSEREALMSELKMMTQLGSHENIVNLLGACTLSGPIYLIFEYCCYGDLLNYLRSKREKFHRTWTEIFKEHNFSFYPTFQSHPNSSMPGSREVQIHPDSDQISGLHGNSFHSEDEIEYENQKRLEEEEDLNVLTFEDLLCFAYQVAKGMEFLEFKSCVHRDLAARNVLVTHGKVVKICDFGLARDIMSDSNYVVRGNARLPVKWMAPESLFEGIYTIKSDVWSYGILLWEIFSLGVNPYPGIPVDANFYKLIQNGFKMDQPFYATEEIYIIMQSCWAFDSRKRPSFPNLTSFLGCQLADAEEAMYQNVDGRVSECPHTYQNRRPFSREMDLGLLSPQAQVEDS
In short: as §1

Jeko-1 cells = experiment: Growth inhibition, MTS assay, Jeko-1; format: cell-based, Human; settings: 72 hours, MTS cell viability, read-out: Jeko-1 ED50
MOLM13 cells = experiment: Growth inhibition, MTS assay, MOLM13; format: cell-based, Human; settings: 72 hours, MTS cell viability, read-out: MOLM 13 ED50
Description: (§2) The following cell lines, were obtained and used in tests as outlined below: • Human myelomonocytic, biphenotypic leukemia MV4-11 cells (harboring a Flt3-ITD mutation); • Human Acute Myeloid Leukemia MOLM16 cells; • Human Acute Myeloid Leukemia MOLM13 cells (harboring a Flt3-ITD mutation); • Human Myeloid Leukemia KG-1 cells; • Human erythroleukemia HEL92 cells; • Human mantle cell lymphoma Jeko-1 cells; • Human hepatocellular carcinoma HepG2 cells; and • Human colon adenocarcinoma SW-480 cells.
(§3) The assays were carried out according to the following protocol, which is described as an example for the MV4-11 cells:
(§4) Ten thousand MV4-11 cells were inoculated into each well of a 96-well microplate (manufactured by Corning Corp.) using Iscove's MDM medium (culture medium) containing 10% fetal calf serum (FCS). The same day, a dimethyl sulfoxide (DMSO) solution of each test compound prepared in a concentration of 10 mmol/L was further diluted with DMSO to the desired concentrations (0.1, 0.5, 1, 2.5, 5 and 10 micromol/L), and the diluted solution was added to each well. The individual wells were further cultured in 5% carbon dioxide at 37° C. for 72 hours. […] Briefly, 10 μl MTS (3-(4,5-Dimethyl-2-thiazolyl)-5-(carboxymethoxyphenyl)-2-(4-sulfophenyl)-2H-tetrazolium was added to each well, and culturing was performed in 5% carbon dioxide at 37° C. for 2 hours. After this incubation and using a microplate spectrophotometer (Synergy 2 multi-mode microplate reader (BioTek)), the absorbance of each well was measured at 490 nm. The value for cells not incubated with a test compound was designated as 100%. By comparing these values with the absorbance difference obtained at the well in which each test compound was added, the cell viability (% viability) after treatment with the test compound was calculated.

MOLM16 cells = experiment: Growth inhibition, MTS assay, MOLM16; format: cell-based, Human; settings: Homo sapiens, MOLM16, 72 h, MTS cell viability, read-out: MOLM 16 ED50
Description: as §2, §3, §4

CCn1c(N[C@H]2CCCNC2)nc2c([N+](=O)[O-])c(Br)c(Br)cc21 [Example 1AA]
DYRK1A % INH (1 μM) (DYRK1): 40%
CDK2/E % INH (1 μM) (CDK2/E): <5%
Pim-2 % INH (1 μM) (Pim-2): 53%
Pim-3 % INH (1 μM) (Pim-3): >95%
IC50 (HEL92 cells; 72 hours): 4.6 µM
Pim-1 % INH (1 μM) (Pim-1): >95%
IC50 (SW-480 cells): 5.5 µM
IC50 (MV4-11 cells; 72 hours): 1.3 µM
IC50 (HepG2 cells; 72 hours): 2.1 µM
IC50 (hERG potassium channel): 2.27 µM
IC50 (CYP3A4): 1.1 to 3.3 µM
Flt3wt % INH (1 μM) (FLT3wt): 11%
IC50 (Jeko-1 cells): 1.8 µM

CCn1c(NC2CCNC2)nc2c([N+](=O)[O-])c(Br)c(Br)cc21 (stereo not drawn) [Example 1AF]
inhibition at 1 µM (DYRK1): 47%
inhibition at 1 µM (CDK2/E): < 5%
inhibition at 1 µM (Pim-2): 23%
inhibition at 1 µM (Pim-3): 71%
IC50 (HEL92 cells; Homo sapiens, 72 h): 8.5 µM
inhibition at 1 µM (Pim-1): > 95%
IC50 (SW-480 cells; Homo sapiens, SW480): 5.2 µM
IC50 (MV4-11 cells; Homo sapiens, MV4-11, 72 h): 1.2 µM
IC50 (HepG2 cells; Homo sapiens, HepG2, 72 h): 1.8 µM
IC50 (CYP3A4): > 10 µM
inhibition at 1 µM (FLT3wt): < 5%
IC50 (Jeko-1 cells; Homo sapiens, JeKo-1): 2.3 µM

CC(C)n1c(N2CC[C@@H](N)C2)nc2c([N+](=O)[O-])c(Br)c(Br)cc21 [Example 1AY]
DYRK1A % INH (1 μM) (DYRK1): 87%
Pim-2 % INH (1 μM) (Pim-2): 89%
Pim-3 % INH (1 μM) (Pim-3): >95%
IC50 (HEL92 cells; 72 hours): 1.9 µM
Pim-1 % INH (1 μM) (Pim-1): >95%
IC50 (MOLM13 cells): 0.9 µM
IC50 (MV4-11 cells; 72 hours): 0.5 µM
IC50 (HepG2 cells; 72 hours): 1.5 µM
Flt3wt % INH (1 μM) (FLT3wt): 60%

COCCn1c(N2CCNCC2)nc2c([N+](=O)[O-])c(Br)c(Br)cc21 [Example 1BB]
DYRK1A % INH (1 μM) (DYRK1): 61%
CDK2/E % INH (1 μM) (CDK2/E): 29%
Pim-2 % INH (1 μM) (Pim-2): 12%
Pim-3 % INH (1 μM) (Pim-3): 65%
IC50 (HEL92 cells; 72 hours): 5.4 µM
Pim-1 % INH (1 μM) (Pim-1): >95%
IC50 (MOLM13 cells): 3.0 µM
IC50 (MV4-11 cells; 72 hours): 0.7 µM
IC50 (HepG2 cells; 72 hours): 2.0 µM
Flt3wt % INH (1 μM) (FLT3wt): 33%

CC(C)n1c(NC2CCC(N)CC2)nc2c([N+](=O)[O-])c(Br)c(Br)cc21 (stereo not drawn) [Example 1BC]
inhibition at 1 µM (DYRK1): 14%
CDK2/E % INH (1 μM) (CDK2/E): <5%
inhibition at 1 µM (Pim-2): 16%
inhibition at 1 µM (Pim-3): 46%
IC50 (HEL92 cells; Homo sapiens, 72 h): 7.9 µM
inhibition at 1 µM (Pim-1): 79%
IC50 (MV4-11 cells; Homo sapiens, MV4-11, 72 h): 3.2 µM
IC50 (CYP3A4): 3.3 to 10 µM
Flt3wt % INH (1 μM) (FLT3wt): <5%
IC50 (Jeko-1 cells; Homo sapiens, JeKo-1): 3 µM

CC(C)n1c(NC2CCNC2)nc2c(C#N)c(Br)c(Br)cc21 (stereo not drawn) [Example 1BK]
DYRK1A % INH (1 μM) (DYRK1): 48%
CDK2/E % INH (1 μM) (CDK2/E): <5%
Pim-2 % INH (1 μM) (Pim-2): 63%
Pim-3 % INH (1 μM) (Pim-3): 92%
Pim-1 % INH (1 μM) (Pim-1): >95%
IC50 (MOLM16 cells): 0.06 µM
IC50 (MV4-11 cells; 72 hours): 0.8 µM
IC50 (HepG2 cells; 72 hours): 5.2 µM
IC50 (CYP3A4): > 10 µM
Flt3wt % INH (1 μM) (FLT3wt): 20%

CC(C)n1c(N2CCNCC2)nc2c(C#N)c(Br)c(Br)cc21 [Example 1BL]
inhibition at 1 µM (DYRK1): 75%
inhibition at 1 µM (CDK2/E): 7%
inhibition at 1 µM (Pim-2): 33%
inhibition at 1 µM (Pim-3): 81%
IC50 (HEL92 cells; Homo sapiens, 72 h): 2.4 µM
inhibition at 1 µM (Pim-1): > 95%
IC50 (MOLM13 cells; Homo sapiens, MOLM-13): 1 µM
IC50 (MV4-11 cells; Homo sapiens, MV4-11, 72 h): 0.4 µM
IC50 (HepG2 cells; Homo sapiens, HepG2, 72 h): 1.4 µM
inhibition at 1 µM (FLT3wt): 54%

CCn1c(NC2CCCNCC2)nc2c([N+](=O)[O-])c(Br)c(Br)cc21 (stereo not drawn) [Example 1Q]
inhibition at 1 µM (DYRK1): 11%
inhibition at 1 µM (CDK2/E): 6%
inhibition at 1 µM (Pim-2): 22%
inhibition at 1 µM (Pim-3): > 95%
IC50 (HEL92 cells; Homo sapiens, 72 h): 8.2 µM
inhibition at 1 µM (Pim-1): 86%
IC50 (SW-480 cells; Homo sapiens, SW480): 5.3 µM
IC50 (MV4-11 cells; Homo sapiens, MV4-11, 72 h): 6.9 µM
IC50 (HepG2 cells; Homo sapiens, HepG2, 72 h): 1.1 µM
IC50 (CYP3A4): 3.3 to 10 µM
inhibition at 1 µM (FLT3wt): < 5%
IC50 (Jeko-1 cells; Homo sapiens, JeKo-1): 5.4 µM

COC(CN)CNc1nc2c([N+](=O)[O-])c(Br)c(Br)cc2n1C(C)C (stereo not drawn) [Example 22AB, N-(3-amino-2-methoxypropyl)-5,6-dibromo-4-nitro-1-(propan-2-yl)-1H-1,3-benzodiazol-2-amine]
inhibition at 1 µM (DYRK1): 17%
inhibition at 1 µM (CDK2/E): < 5%
inhibition at 1 µM (Pim-2): 31%
inhibition at 1 µM (Pim-3): 76%
inhibition at 1 µM (Pim-1): > 95%
IC50 (MV4-11 cells; Homo sapiens, MV4-11, 72 h): 3.2 µM
IC50 (HepG2 cells; Homo sapiens, HepG2, 72 h): 5.1 µM
IC50 (hERG potassium channel): 2.02 µM
IC50 (CYP3A4): 3.3 to 10 µM
inhibition at 1 µM (FLT3wt): < 5%
